From ChEMBL document CHEMBL4368940, “Development of a novel NURR1/NOT agonist from hit to lead and candidate for the potential treatment of Parkinson's disease” (Bioorg Med Chem Lett, 2019)

How the values were obtained:
[1] = biological target: Nuclear receptor subfamily 4 group A member 2 (Mus musculus) (UniProt Q06219); experiment: (§1) Agonist activity at Nurr1 in mouse N2A cells harboring NBRE by luciferase reporter gene assay; type: cell-based
[2] = biological target: Nuclear receptor subfamily 4 group A member 2 (Mus musculus, UniProt Q06219); experiment: as §1; type: cell-based
[3] = biological target: Nuclear receptor subfamily 4 group A member 2 (Homo sapiens, UniProt P43354); experiment: Agonist activity at full-length Gal4-fused NOT (unknown origin) expressed in CHO cells by luciferase reporter gene assay; type: cell-based
[4] = Clearance in human hepatocytes assessed per million cells; type: ADME, cell-based, Hepatocyte
[5] = Drug level in mouse liver microsomes treated with N-phenyl-6-(pyridin-2-yl)imidazo[1,2-a]pyridine-2-carboxamide assessed as metabolite formation; type: ADME, Microsome
[6] = Dissociation constant, pKa of the compound; type: physicochemical
[7] = biological target: Nuclear receptor subfamily 4 group A member 2 (Mus musculus) (UniProt Q06219); experiment: Agonist activity at Nurr1 in mouse MG7 cells assessed as inhibition of LPS-induced IL1beta secretion at 3 uM; type: cell-based
[8] = biological target: Nuclear receptor subfamily 4 group A member 2 (Mus musculus) (UniProt Q06219); experiment: Agonist activity at Nurr1 in co-culture of mouse primary neurons and microglia assessed as inhibition of LPS-induced neurotoxicity by measuring neuroprotection at 3 uM; design: scale not given: the % may be the effect or the level left
[9] = Solubility of the compound by HPLC analysis; type: physicochemical
[10] = Lipophilicity, log D of the compound; type: physicochemical; settings: octanol/water
[11] = Drug metabolism in human hepatocytes assessed as 3-(2-(4-chlorophenyl)imidazo[1,2-a]pyridin-6-yl)benzoic acid formation; type: ADME, cell-based, Hepatocyte
Cytochrome P450 2D6 = Cytochrome P450 2D6 (Homo sapiens, UniProt P10635); experiment: Inhibition of CYP2D6 (unknown origin); type: ADME
[12] = Stability in mouse plasma; type: ADME, cell-free
[13] = biological target: Nuclear receptor subfamily 4 group A member 2 (Mus musculus) (UniProt Q06219); experiment: Agonist activity at Nurr1 in co-culture of mouse primary neurons and microglia assessed as inhibition of LPS-induced neurotoxicity by measuring neuroprotection at 10 uM; design: scale not given: the % may be the effect or the level left
[14] = biological target: Nuclear receptor subfamily 4 group A member 2 (Rattus norvegicus) (UniProt Q07917); experiment: Agonist activity at Nurr1 in rat mesencephalic primary neurons assessed as increase in tyrosine hydroxylase expression at 3 uM
Cytochrome P450 3A4 = Cytochrome P450 3A4 (Homo sapiens, UniProt P08684); experiment: Inhibition of CYP3A4 (unknown origin); type: ADME
[15] = Drug metabolism in human liver microsomes; type: ADME, Microsome; settings: read-out: Drug metabolism
[16] = Genotoxicity in Salmonella typhimurium by Ames test; type: toxicity; settings: salmonella enterica subsp. enterica serovar typhimurium
Cytochrome P450 2C9 = Cytochrome P450 2C9 (Homo sapiens, UniProt P11712); experiment: Inhibition of CYP2C9 (unknown origin); type: ADME
[17] = Apparent permeability in human Caco2 cells; type: ADME, cell-based; settings: caco-2
[18] = biological target: Voltage-gated inwardly rectifying potassium channel KCNH2 (Homo sapiens, UniProt Q12809); experiment: Activation of human ERG
CYP450 = CYP450 (Homo sapiens, UniProt P04798+P05177+P05181+P08684+P10632+P10635+P11509+P11712+P13584+P20813+P20815+P20853+P24462+P24903+P33260+P33261+P51589+P78329+P98187+Q02928+Q08477+Q16678+Q16696+Q5TCH4+Q6VVX0+Q7Z449+Q8TAV3+Q96SQ9+Q9HB55); experiment: Induction of CYP450 (unknown origin); type: ADME, protein assay
[19] = Stability in human plasma; type: ADME, cell-free
[20] = Drug metabolism in mouse liver microsomes; type: ADME, Microsome; settings: read-out: Drug metabolism
[21] = Drug level in human hepatocytes treated with (3-(2-(4-chlorophenyl)imidazo[1,2-a]pyridin-6-yl)phenyl)methanol; type: ADME, cell-based, Hepatocyte
[22] = Drug metabolism in mouse liver microsomes assessed as amide hydrolysis by measuring 6-(pyridin-2-yl)imidazo[1,2-a]pyridine-2-carboxylic acid formation; type: ADME, Microsome
[23] = Drug metabolism in mouse liver microsomes assessed as amide hydrolysis by measuring aniline formation; type: ADME, Microsome
hERG = hERG (Homo sapiens, UniProt Q12809); experiment: Inhibition of human ERG at 10 uM
hERG, sequence (Q12809 whole entry): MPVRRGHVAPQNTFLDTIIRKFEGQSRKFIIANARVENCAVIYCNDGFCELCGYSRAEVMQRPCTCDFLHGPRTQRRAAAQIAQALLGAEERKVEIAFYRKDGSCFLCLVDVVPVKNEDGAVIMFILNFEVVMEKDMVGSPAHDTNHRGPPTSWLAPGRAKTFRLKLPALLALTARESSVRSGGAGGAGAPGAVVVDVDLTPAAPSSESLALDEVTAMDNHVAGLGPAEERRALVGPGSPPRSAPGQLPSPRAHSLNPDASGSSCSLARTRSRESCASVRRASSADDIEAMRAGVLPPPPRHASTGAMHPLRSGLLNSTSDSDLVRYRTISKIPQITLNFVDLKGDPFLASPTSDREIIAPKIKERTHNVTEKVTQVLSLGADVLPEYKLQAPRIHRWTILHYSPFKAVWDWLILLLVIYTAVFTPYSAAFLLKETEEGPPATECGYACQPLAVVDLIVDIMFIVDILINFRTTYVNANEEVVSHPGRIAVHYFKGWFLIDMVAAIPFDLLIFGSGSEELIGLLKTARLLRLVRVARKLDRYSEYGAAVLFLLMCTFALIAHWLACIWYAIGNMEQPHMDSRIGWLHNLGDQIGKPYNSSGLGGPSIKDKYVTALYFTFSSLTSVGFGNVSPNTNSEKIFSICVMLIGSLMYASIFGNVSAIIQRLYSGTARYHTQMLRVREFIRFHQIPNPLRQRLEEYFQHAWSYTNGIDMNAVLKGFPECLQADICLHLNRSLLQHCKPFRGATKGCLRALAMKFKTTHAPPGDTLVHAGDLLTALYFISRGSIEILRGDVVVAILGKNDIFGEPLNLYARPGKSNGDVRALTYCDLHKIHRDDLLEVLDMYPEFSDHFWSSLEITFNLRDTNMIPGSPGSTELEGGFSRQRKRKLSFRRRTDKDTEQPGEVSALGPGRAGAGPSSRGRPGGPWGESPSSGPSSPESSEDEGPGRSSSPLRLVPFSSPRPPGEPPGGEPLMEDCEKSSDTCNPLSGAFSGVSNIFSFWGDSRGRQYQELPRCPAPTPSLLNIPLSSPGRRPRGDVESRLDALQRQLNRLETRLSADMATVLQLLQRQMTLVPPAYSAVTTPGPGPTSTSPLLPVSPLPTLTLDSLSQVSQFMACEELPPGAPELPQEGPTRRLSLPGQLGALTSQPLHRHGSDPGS

Nuclear receptor subfamily 4 group A member 2 (Mus musculus, UniProt Q06219), sequence (Q06219 whole entry, the tested form may be a part): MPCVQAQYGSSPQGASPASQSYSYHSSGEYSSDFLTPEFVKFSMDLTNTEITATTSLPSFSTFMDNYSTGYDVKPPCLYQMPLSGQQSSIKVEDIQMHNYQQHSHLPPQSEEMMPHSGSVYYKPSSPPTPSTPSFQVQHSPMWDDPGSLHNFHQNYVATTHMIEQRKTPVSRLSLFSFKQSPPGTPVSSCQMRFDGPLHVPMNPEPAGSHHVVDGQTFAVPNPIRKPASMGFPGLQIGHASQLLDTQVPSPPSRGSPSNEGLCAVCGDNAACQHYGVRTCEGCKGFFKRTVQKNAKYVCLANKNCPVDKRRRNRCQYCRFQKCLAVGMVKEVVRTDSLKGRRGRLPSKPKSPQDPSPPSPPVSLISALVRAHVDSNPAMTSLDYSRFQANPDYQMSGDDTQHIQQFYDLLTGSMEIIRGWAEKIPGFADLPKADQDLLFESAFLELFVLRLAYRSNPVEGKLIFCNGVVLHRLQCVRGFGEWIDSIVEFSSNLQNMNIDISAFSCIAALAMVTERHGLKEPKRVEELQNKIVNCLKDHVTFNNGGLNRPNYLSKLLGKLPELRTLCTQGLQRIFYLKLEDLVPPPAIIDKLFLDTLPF
Nuclear receptor subfamily 4 group A member 2 (Mus musculus), sequence (Q06219 whole entry): as the sequence (Q06219 whole entry, the tested form may be a part) above
Nuclear receptor subfamily 4 group A member 2 (Homo sapiens, UniProt P43354), sequence (P43354 whole entry, the tested form may be a part): as the sequence (Q06219 whole entry, the tested form may be a part) above, with S131T, S134G, D354E counted along it
Cytochrome P450 3A4, sequence (P08684 whole entry): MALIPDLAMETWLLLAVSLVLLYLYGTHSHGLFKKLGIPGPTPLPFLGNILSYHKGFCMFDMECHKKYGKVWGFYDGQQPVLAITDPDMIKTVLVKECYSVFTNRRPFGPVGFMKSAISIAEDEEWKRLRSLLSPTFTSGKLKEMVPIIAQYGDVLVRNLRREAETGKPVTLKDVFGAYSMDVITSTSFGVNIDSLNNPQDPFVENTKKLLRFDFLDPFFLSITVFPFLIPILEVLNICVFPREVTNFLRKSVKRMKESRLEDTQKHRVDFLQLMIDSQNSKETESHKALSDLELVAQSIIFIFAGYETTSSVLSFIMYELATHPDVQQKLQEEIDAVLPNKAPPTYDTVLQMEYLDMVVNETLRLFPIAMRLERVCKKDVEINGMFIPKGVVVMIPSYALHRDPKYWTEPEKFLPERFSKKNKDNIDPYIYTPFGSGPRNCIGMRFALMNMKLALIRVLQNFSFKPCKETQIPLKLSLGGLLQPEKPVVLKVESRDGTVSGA
Voltage-gated inwardly rectifying potassium channel KCNH2, sequence (Q12809 whole entry): as the sequence (Q12809 whole entry) above
Cytochrome P450 2D6, sequence (P10635 whole entry): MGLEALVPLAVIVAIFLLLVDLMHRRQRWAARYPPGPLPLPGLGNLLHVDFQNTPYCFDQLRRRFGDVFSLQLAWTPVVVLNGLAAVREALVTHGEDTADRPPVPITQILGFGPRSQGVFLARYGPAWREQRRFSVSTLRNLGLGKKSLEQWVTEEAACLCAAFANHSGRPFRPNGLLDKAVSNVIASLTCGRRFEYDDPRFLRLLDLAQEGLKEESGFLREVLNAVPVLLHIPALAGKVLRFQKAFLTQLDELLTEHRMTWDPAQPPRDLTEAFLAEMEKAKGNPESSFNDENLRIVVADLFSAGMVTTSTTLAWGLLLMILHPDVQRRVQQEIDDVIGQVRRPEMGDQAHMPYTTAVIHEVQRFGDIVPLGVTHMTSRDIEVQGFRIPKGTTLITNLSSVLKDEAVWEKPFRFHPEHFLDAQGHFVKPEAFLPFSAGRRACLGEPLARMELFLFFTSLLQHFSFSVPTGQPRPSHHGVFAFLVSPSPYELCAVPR
Nuclear receptor subfamily 4 group A member 2 (Rattus norvegicus), sequence (Q07917 whole entry): as the sequence (Q06219 whole entry, the tested form may be a part) above, with S134G, P182R counted along it
Cytochrome P450 2C9, sequence (P11712 whole entry): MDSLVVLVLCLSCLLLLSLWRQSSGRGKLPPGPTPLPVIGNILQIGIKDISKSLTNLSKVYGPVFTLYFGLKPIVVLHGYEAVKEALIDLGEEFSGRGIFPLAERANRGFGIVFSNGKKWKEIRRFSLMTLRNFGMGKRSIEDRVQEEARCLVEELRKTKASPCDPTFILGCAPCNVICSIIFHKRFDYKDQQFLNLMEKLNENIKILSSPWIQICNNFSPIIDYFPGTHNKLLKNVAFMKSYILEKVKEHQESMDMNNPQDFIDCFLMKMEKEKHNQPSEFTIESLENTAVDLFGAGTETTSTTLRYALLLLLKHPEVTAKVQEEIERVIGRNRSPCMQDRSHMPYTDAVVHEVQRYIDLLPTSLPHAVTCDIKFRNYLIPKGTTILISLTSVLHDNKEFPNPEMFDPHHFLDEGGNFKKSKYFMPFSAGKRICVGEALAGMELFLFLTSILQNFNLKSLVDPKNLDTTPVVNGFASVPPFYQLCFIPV

O=C(Nc1cc(F)cc(F)c1)c1cn2cc(-c3ccccn3)ccc2n1
Emax [1]: 85% | EC50 [2]: 2.5 nM | EC50 ([3]; read-out: EC50): > 1000 nM

O=C(Nc1nncs1)c1cn2cc(-c3ccccn3)ccc2n1
Emax [1]: 70% | EC50 [2]: 67.6 nM | EC50 ([3]; read-out: EC50): > 1000 nM

O=C(Nc1nccs1)c1cn2cc(-c3ccccn3)ccc2n1
Emax [1]: 72% | EC50 ([3]; read-out: EC50): > 1000 nM

OCc1cccc(-c2ccc3nc(-c4ccc(Cl)cc4)cn3c2)c1F
CLH [4]: 0.188 mL/h | EC50 ([3]; read-out: EC50): 14 nM

O=C(Nc1ccccc1F)c1cn2cc(-c3ccccn3)ccc2n1
Emax [1]: 104% | EC50 [2]: 1 nM | EC50 ([3]; read-out: EC50): > 1000 nM

CCN(CC)C(=O)c1cccc(-c2ccc3nc(-c4ccc(Cl)cc4)cn3c2)c1
EC50 ([3]; read-out: EC50): > 3000 nM

OCc1cccc(-c2ccc3nc(-c4ccc(Cl)cc4)cn3n2)c1
EC50 ([3]; cho): Not Active

Cc1c(CO)cccc1-c1ccc2nc(-c3ccc(Cl)cc3)cn2c1
EC50 ([3]; read-out: EC50): > 1000 nM

Cc1cccc(-c2ccc3nc(-c4ccc(Cl)cc4)cn3c2)c1
EC50 ([3]; read-out: EC50): > 3000 nM

CCC(O)c1cccc(-c2ccc3nc(-c4ccc(Cl)cc4)cn3c2)c1 (stereo not given)
EC50 ([3]; read-out: EC50): > 1000 nM

CC(O)(CO)c1cccc(-c2ccc3nc(-c4ccc(Cl)cc4)cn3c2)c1 (stereo not given)
EC50 ([3]; read-out: EC50): > 1000 nM

CC(O)c1cccc(-c2ccc3nc(-c4ccc(Cl)cc4)cn3c2)c1 (single isomer, unassigned; (+))
CLH [4]: 0.45 mL/h | EC50 ([3]; read-out: EC50): 75 nM

Nc1ccccc1 [ANILINE]
Drug metabolism [5]: Metabolite_Detected

CNC(=O)c1cccc(-c2ccc3nc(-c4ccc(Cl)cc4)cn3c2)c1
Emax [3]: 226%

CC(O)c1cccc(-c2ccc3nc(-c4ccc(Cl)cc4)cn3c2)c1 (single isomer, unassigned; (-))
EC50 ([3]; read-out: EC50): 219 nM

OCc1cccc(-c2ccc3nc(-c4ccc(Cl)cc4)cn3c2)c1
pKa [6]: 5.16 | inhibition [7]: 58% | CLH [4]: 0.42 mL/h | Activity [8]: 37% | solubility [9]: < 1 µM | logD [10]: 2.95 | Drug metabolism [11]: Metabolite_Detected | IC50 (Cytochrome P450 2D6): > 10000 nM | Stability [12]: Stable | Activity [13]: 65% | Activity [14]: 188 to 313% | IC50 (Cytochrome P450 3A4): > 10000 nM | metabolised [15]: 22% | Activity [16]: Non-Toxic | IC50 (Cytochrome P450 2C9): 8600 nM | Emax [1]: 240% | EC50 [2]: 1 nM | permeability [17]: Permeable | Emax [3]: 239% | EC50 ([3]; read-out: EC50): 45 to 75 nM | EC50 [18]: 900 nM | Emax (CYP450): < 20% | Stability [19]: Stable | metabolised [20]: 8%

CCC(C)C(O)c1cccc(-c2ccc3nc(-c4ccc(Cl)cc4)cn3c2)c1 (stereo not given)
EC50 ([3]; read-out: EC50): > 3000 nM

CC(O)c1cccc(-c2ccc3nc(-c4ccc(Cl)cc4)cn3c2)c1 (racemic)
EC50 ([3]; read-out: EC50): 99 nM

CCCCCC(O)c1cccc(-c2ccc3nc(-c4ccc(Cl)cc4)cn3c2)c1 (stereo not given)
EC50 ([3]; read-out: EC50): > 3000 nM

OC(c1cccc(-c2ccc3nc(-c4ccc(Cl)cc4)cn3c2)c1)C1CCCC1 (stereo not given)
EC50 ([3]; read-out: EC50): > 3000 nM

O=C(Nc1cnoc1)c1cn2cc(-c3ccccn3)ccc2n1
Emax [1]: 85% | EC50 [2]: 55 nM | EC50 ([3]; read-out: EC50): > 1000 nM

O=C(Nc1cccc(F)c1)c1cn2cc(-c3ccccn3)ccc2n1
Emax [1]: 103% | EC50 [2]: 1 nM | EC50 ([3]; read-out: EC50): > 1000 nM

O=C(O)c1cccc(-c2ccc3nc(-c4ccc(Cl)cc4)cn3c2)c1
Drug metabolism [21]: Metabolite_Detected

Clc1ccc(-c2cn3cc(-c4cccc(CN5CCOCC5)c4)ccc3n2)cc1
EC50 ([3]; read-out: EC50): > 3000 nM

CN(C)Cc1cccc(-c2ccc3nc(-c4ccc(Cl)cc4)cn3c2)c1
EC50 ([3]; read-out: EC50): > 3000 nM

O=C(Nc1ccccc1Cl)c1cn2cc(-c3ccccn3)ccc2n1
Emax [1]: 68% | EC50 [2]: 26.5 nM | EC50 ([3]; read-out: EC50): > 1000 nM

O=C(Nc1ccccc1)c1cn2cc(-c3ccccn3)ccc2n1
pKa [6]: 3.6 | CLH [4]: 0.128 mL/h | solubility [9]: < 1 µM | logD [10]: 3.65 | IC50 (Cytochrome P450 2D6): > 10000 nM | Stability [12]: Unstable | Activity [14]: 174 to 216% | Drug metabolism [22]: Metabolite_Detected | IC50 (Cytochrome P450 3A4): > 10000 nM | metabolised [15]: 20% | Activity [16]: Non-Toxic | IC50 (Cytochrome P450 2C9): 8600 nM | Emax [1]: 204% | EC50 [2]: 1 nM | permeability [17]: Permeable | Emax [3]: 203% | EC50 ([3]; read-out: EC50): 140 nM | EC50 [18]: > 10000 nM | Emax (CYP450): < 20% | Drug metabolism [23]: Metabolite_Detected | Stability [19]: Stable | metabolised [20]: 21%

OCc1cccc(-c2cn3cc(-c4ccc(Cl)cc4)nc3cn2)c1
EC50 ([3]; cho): Not Active

OC1(c2cccc(-c3ccc4nc(-c5ccc(Cl)cc5)cn4c3)c2)CCOCC1
EC50 ([3]; read-out: EC50): > 1000 nM

O=C(Nc1ccsc1)c1cn2cc(-c3ccccn3)ccc2n1
Emax [1]: 85% | EC50 [2]: 1 nM | EC50 ([3]; read-out: EC50): > 1000 nM

OC1(c2cccc(-c3ccc4nc(-c5ccc(Cl)cc5)cn4c3)c2)COC1
EC50 ([3]; read-out: EC50): 323 nM

OC(c1ccccc1)c1cccc(-c2ccc3nc(-c4ccc(Cl)cc4)cn3c2)c1 (stereo not given)
EC50 ([3]; read-out: EC50): > 3000 nM

NC(=O)c1cccc(-c2ccc3nc(-c4ccc(Cl)cc4)cn3c2)c1
Emax [3]: 210%

O=C(O)c1cn2cc(-c3ccccn3)ccc2n1
Drug metabolism [5]: Metabolite_Detected

O=C(Nc1ccccn1)c1cn2cc(-c3ccccn3)ccc2n1
Emax [1]: 87% | EC50 [2]: 2 nM | EC50 ([3]; read-out: EC50): > 1000 nM

COCc1cccc(-c2ccc3nc(-c4ccc(Cl)cc4)cn3c2)c1
EC50 ([3]; read-out: EC50): > 3000 nM

N#Cc1ccccc1NC(=O)c1cn2cc(-c3ccccn3)ccc2n1
Emax [1]: 52% | EC50 [2]: 292 nM | EC50 ([3]; read-out: EC50): > 1000 nM

O=C(Nc1cc[nH]n1)c1cn2cc(-c3ccccn3)ccc2n1
Emax [1]: 61% | EC50 ([3]; read-out: EC50): > 1000 nM

O=C(Nc1cccc(F)c1F)c1cn2cc(-c3ccccn3)ccc2n1
Emax [1]: 64% | EC50 ([3]; read-out: EC50): > 1000 nM

Clc1ccc(-c2cn3cc(-c4cccc(CN5CCCC5)c4)ccc3n2)cc1
EC50 ([3]; read-out: EC50): > 3000 nM

CC(C)(O)c1c(F)ccc(-c2ccc3nc(-c4ccc(Cl)cc4)cn3c2)c1F
EC50 ([3]; read-out: EC50): > 1000 nM | inhibition at 10 µM (hERG): 70%

Cc1ccc(-c2ccc3nc(-c4ccc(Cl)cc4)cn3c2)cc1CO
EC50 ([3]; read-out: EC50): > 1000 nM

O=C(Nc1cccc(F)n1)c1cn2cc(-c3ccccn3)ccc2n1
Emax [1]: 86% | EC50 [2]: 0.6 nM | Emax [3]: 138% | EC50 ([3]; read-out: EC50): 25 nM

CNCc1cccc(-c2ccc3nc(-c4ccc(Cl)cc4)cn3c2)c1
EC50 ([3]; read-out: EC50): > 3000 nM

O=C(Nc1ccon1)c1cn2cc(-c3ccccn3)ccc2n1
Emax [1]: 62% | EC50 [2]: 20 nM | EC50 ([3]; read-out: EC50): > 1000 nM

OCc1cccc(-c2ccc3nc(-c4ccc(Cl)cc4)nn3n2)c1
EC50 ([3]; cho): Not Active

CCCCC(O)c1cccc(-c2ccc3nc(-c4ccc(Cl)cc4)cn3c2)c1 (stereo not given)
EC50 ([3]; read-out: EC50): > 3000 nM

OCc1cc(-c2ccc3nc(-c4ccc(Cl)cc4)cn3c2)ccc1F
EC50 ([3]; read-out: EC50): > 1000 nM

OCc1c(F)ccc(-c2ccc3nc(-c4ccc(Cl)cc4)cn3c2)c1F
CLH [4]: 0.1368 mL/h | EC50 ([3]; read-out: EC50): 38 nM | inhibition at 10 µM (hERG): 24%

OCc1cccc(-c2ccc3cc(-c4ccc(Cl)cc4)cn3c2)c1
EC50 ([3]; cho): Not Active

CCCCCCC(O)c1cccc(-c2ccc3nc(-c4ccc(Cl)cc4)cn3c2)c1 (stereo not given)
EC50 ([3]; read-out: EC50): > 3000 nM

N#Cc1cccc(-c2ccc3nc(-c4ccc(Cl)cc4)cn3c2)c1
EC50 ([3]; read-out: EC50): > 3000 nM

O=C(Nc1cc(F)ccc1F)c1cn2cc(-c3ccccn3)ccc2n1
Emax [1]: 68% | EC50 [2]: 1 nM | EC50 ([3]; read-out: EC50): > 1000 nM
